Experimental data published in the supplement of paper PMC11061612.

Key:
[1] = tested on: CCRF-CEM (T-Lymphoblastic Leukemia); assay: Bliss excess, mean over the matrix (fraction); higher = more synergy
Method in brief: (§1)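 Bliss excess equals the observed combination effect minus the expected value EA + EB − EA·EB, where EA and EB are the effects of each agent alone. Combination Emax is the second-highest inhibition within the matrix. Inhibition was scaled from CellTiter-Glo 2.0 luminescence, with 0 set by vehicle wells and 1 by blank wells, after 72 hours of two-drug dosing of cells plated in 1536-well plates.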

[2] = tested on: RC-K8 (B-Cell Non-Hodgkin's Lymphoma); assay: as above
Method in brief: as §1

NOS-1 (Osteosarcoma) = assay: as above
Method in brief: as §1

[3] = tested on: RO82-W-1 (Thyroid Gland Carcinoma); assay: as above
Method in brief: as §1

[4] = tested on: NCI-H2085 (Non-Small Cell Lung Carcinoma); assay: as above
Method in brief: as §1

HOS (Osteosarcoma) [5] = assay: as above
Method in brief: as §1

[6] = tested on: HT-1376 (Bladder Carcinoma); assay: combination Emax (second highest fraction inhibited in the dose matrix, 72 h); higher = more inhibition; extreme values may be limits of the assay
Method in brief: as §1

[7] = tested on: LB831-BLC (Bladder Carcinoma); assay: as above
Method in brief: as §1

[8] = tested on: LNCaP-Clone-FGC (Prostate Carcinoma); assay: as above
Method in brief: as §1

KELLY (Neuroblastoma) = assay: as above
Method in brief: as §1

[9] = tested on: OVCA420 (Ovarian Carcinoma); assay: as above
Method in brief: as §1

[10] = tested on: KYSE-520 (Esophageal Squamous Cell Carcinoma); assay: as above
Method in brief: as §1

[11] = tested on: NCI-H2085 (Non-Small Cell Lung Carcinoma); assay: as above
Method in brief: as §1

HOS (Osteosarcoma) [12] = assay: as above
Method in brief: as §1

42-MG-BA (Glioblastoma) = assay: as above
Method in brief: as §1

AGS (Gastric Carcinoma) = assay: as above
Method in brief: as §1

[13] = tested on: LU-135 (Small Cell Lung Carcinoma); assay: as above
Method in brief: as §1

[14] = tested on: ME-1 (Acute Myeloid Leukemia); assay: as above
Method in brief: as §1

[15] = tested on: HO-1-N-1 (Oral Cavity Carcinoma); assay: as above
Method in brief: as §1

[16] = tested on: HuP-T4 (Pancreatic Carcinoma); assay: as above
Method in brief: as §1

Row | SMILES | Bliss excess [1] | Bliss excess [2] | Bliss excess (NOS-1 (Osteosarcoma)) | Bliss excess [3] | Bliss excess [4] | Bliss excess (HOS (Osteosarcoma) [5]) | combination Emax [6] | combination Emax [7] | combination Emax [8] | combination Emax (KELLY (Neuroblastoma)) | combination Emax [9] | combination Emax [10] | combination Emax [11] | combination Emax (HOS (Osteosarcoma) [12]) | combination Emax (42-MG-BA (Glioblastoma)) | combination Emax (AGS (Gastric Carcinoma)) | combination Emax [13] | combination Emax [14] | combination Emax [15] | combination Emax [16]
1 | Cc1c2c(nn1C)CSCc1cc(n(C)n1)CSc1cc(c3ccccc3c1)OCCCc1c(C(=O)O)n(C)c3c-2c(Cl)ccc13 [AZD5991] + CN(C)CCCOc1ccc(-c2ccc3ncc4c(c3c2)n(C2CCOCC2)c(=O)n4C)cn1 [AZD0156] (first compound max 1 µM, 7x7, partner max 1 µM) | 0.0467 | 0.0237 | -0.0581 | 0.0257 | -0.0266 | -0.0026 | 0.196 | 0.229 | 0.429 | 0.741 | 0.191 | 0.23 | 0.219 | 0.278 | 0.986 | 0.255 | 0.286 | 0.803 | 0.771 | 0.779
2 | CN(C)CCCOc1ccc(-c2ccc3ncc4c(c3c2)n(C2CCOCC2)c(=O)n4C)cn1 [AZD0156] + O=C(c1cc(Cc2n[nH]c(=O)c3ccccc23)ccc1F)N1CCN(C(=O)C2CC2)CC1 [Olaparib] (first compound max 3 µM, partner max 3 µM) | 0.158 | -0.0046 | 0.0594 | -0.0299 | 0.0267 | 0.046 | 0.115 | 0.26 | 0.639 | 0.607 | 0.23 | 0.324 | 0.224 | 0.241 | 0.402 | 0.392 | 0.426 | 0.224 | 0.346 | 0.289
3 | C=CCn1c(=O)c2cnc(Nc3ccc(N4CCN(C)CC4)cc3)nc2n1-c1cccc(C(C)(C)O)n1 [AZD1775] + C1CN(CCC1(C(=O)N[C@@H](CCO)C2=CC=C(C=C2)Cl)N)C3=NC=NC4=C3C=CN4 [Capivasertib] (first compound max 3 µM, partner max 3 µM) | 0.0122 | -0.002 | 0.0118 | -0.0678 | 0.0047 | -0.0141 | 0.355 | 0.75 | 1 | 1 | 0.59 | 0.598 | 0.631 | 0.831 | 0.733 | 0.976 | 0.669 | 0.685 | 0.781 | 0.691
